In PubChem BioAssay AID1963833 (Molecular Pharmacology Branch, DTP, NCI, 2024):

System: 883617-216-R-J1-PDC complex spheroid viability
Experiment: Anticancer human tumor 883617-216-R-J1-PDC patient-derived bladder carcinoma cell line growth inhibition [POLQ]
Conditions: for IC50: curve of first compound; for viability, T/C: stronger effect = lower value
In short: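 PDC + HUVEC + MSC complex spheroids; POLQ inhibitors ± partner drugs; top conc. at/near clinical Cmax, else 10 microM (SN-38 1 microM), half-log dilutions; 37 degrees C, 5% CO2.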

[1] = second compound 0.0316 µM, first compound 0.0316 µM
[2] = second compound 0.0316 µM, first compound 0.1 µM
[3] = second compound 0.1 µM, first compound 0.0316 µM
[4] = second compound 0.1 µM, first compound 0.1 µM
[5] = second compound 0.316 µM, first compound 0.0316 µM
[6] = second compound 0.316 µM, first compound 0.1 µM
[7] = second compound 1 µM, first compound 0.0316 µM
[8] = second compound 1 µM, first compound 0.1 µM
[9] = second compound 3.16 µM, first compound 0.0316 µM
[10] = second compound 3.16 µM, first compound 0.1 µM
[11] = second compound 10 µM, first compound 0.0316 µM
[12] = second compound 10 µM, first compound 0.1 µM
[13] = second compound 0.0316 µM, first compound 0.316 µM
[14] = second compound 0.0316 µM, first compound 1 µM
[15] = second compound 0.0316 µM, first compound 3.16 µM
[16] = second compound 0.0316 µM, first compound 10 µM
[17] = second compound 0.1 µM, first compound 0.316 µM
[18] = second compound 0.1 µM, first compound 1 µM
[19] = second compound 0.1 µM, first compound 3.16 µM
[20] = second compound 0.1 µM, first compound 10 µM
[21] = second compound 0.316 µM, first compound 0.316 µM
[22] = second compound 0.316 µM, first compound 1 µM
[23] = second compound 0.316 µM, first compound 3.16 µM
[24] = second compound 0.316 µM, first compound 10 µM
[25] = second compound 1 µM, first compound 0.316 µM
[26] = second compound 1 µM, first compound 1 µM
[27] = second compound 1 µM, first compound 3.16 µM
[28] = second compound 1 µM, first compound 10 µM
[29] = second compound 3.16 µM, first compound 0.316 µM
[30] = second compound 3.16 µM, first compound 1 µM
[31] = second compound 3.16 µM, first compound 3.16 µM
[32] = second compound 3.16 µM, first compound 10 µM
[33] = second compound 10 µM, first compound 0.316 µM
[34] = second compound 10 µM, first compound 1 µM
[35] = second compound 10 µM, first compound 3.16 µM
[36] = second compound 10 µM, first compound 10 µM
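Further: spheroids exposed to compounds for seven days before readout.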
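Wherever viability, T/C is given: 100% = DMSO vehicle control viability.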

CC[C@@]1(O)C(=O)OCc2c1cc1n(c2=O)Cc2cc3c(CN(C)C)c(O)ccc3nc2-1 + COC1C(OC(N)=O)C(O)C(Oc2ccc3c(O)c(NC(=O)c4ccc(O)c(CC=C(C)C)c4)c(=O)oc3c2C)OC1(C)C
IC50 (second compound 0.0316 µM): > 0.1 µM | IC50 (second compound 0.1 µM): > 0.1 µM | IC50 (second compound 0.316 µM): > 0.1 µM | IC50 (second compound 1 µM): > 0.1 µM | IC50 (second compound 3.16 µM): > 0.1 µM | IC50 (second compound 10 µM): > 0.1 µM | viability, T/C (second compound 0.0316 µM, first compound 0.000316 µM): 110% | viability, T/C (second compound 0.0316 µM, first compound 0.001 µM): 98.5% | viability, T/C (second compound 0.0316 µM, first compound 0.00316 µM): 94.7% | viability, T/C (second compound 0.0316 µM, first compound 0.01 µM): 89.1% | viability, T/C [1]: 67.4% | viability, T/C [2]: 65.2% | viability, T/C (second compound 0.1 µM, first compound 0.000316 µM): 108% | viability, T/C (second compound 0.1 µM, first compound 0.001 µM): 110% | viability, T/C (second compound 0.1 µM, first compound 0.00316 µM): 91.7% | viability, T/C (second compound 0.1 µM, first compound 0.01 µM): 85.8% | viability, T/C [3]: 55.2% | viability, T/C [4]: 60.6% | viability, T/C (second compound 0.316 µM, first compound 0.000316 µM): 95.9% | viability, T/C (second compound 0.316 µM, first compound 0.001 µM): 101% | viability, T/C (second compound 0.316 µM, first compound 0.00316 µM): 87.1% | viability, T/C (second compound 0.316 µM, first compound 0.01 µM): 81.6% | viability, T/C [5]: 58% | viability, T/C [6]: 65% | viability, T/C (second compound 1 µM, first compound 0.000316 µM): 94.9% | viability, T/C (second compound 1 µM, first compound 0.001 µM): 96.8% | viability, T/C (second compound 1 µM, first compound 0.00316 µM): 89.7% | viability, T/C (second compound 1 µM, first compound 0.01 µM): 82.3% | viability, T/C [7]: 57.3% | viability, T/C [8]: 61.7% | viability, T/C (second compound 3.16 µM, first compound 0.000316 µM): 107% | viability, T/C (second compound 3.16 µM, first compound 0.001 µM): 89.6% | viability, T/C (second compound 3.16 µM, first compound 0.00316 µM): 93.4% | viability, T/C (second compound 3.16 µM, first compound 0.01 µM): 78% | viability, T/C [9]: 65.2% | viability, T/C [10]: 57.1% | viability, T/C (second compound 10 µM, first compound 0.000316 µM): 104% | viability, T/C (second compound 10 µM, first compound 0.001 µM): 90.9% | viability, T/C (second compound 10 µM, first compound 0.00316 µM): 95.3% | viability, T/C (second compound 10 µM, first compound 0.01 µM): 88% | viability, T/C [11]: 65.6% | viability, T/C [12]: 64.9%

Nc1ccn(C2OC(CO)C(O)C2(F)F)c(=O)n1 (stereo not drawn) + COC1C(OC(N)=O)C(O)C(Oc2ccc3c(O)c(NC(=O)c4ccc(O)c(CC=C(C)C)c4)c(=O)oc3c2C)OC1(C)C
IC50 (second compound 0.0316 µM): < 0.0316 µM | IC50 (second compound 0.1 µM): < 0.0316 µM | IC50 (second compound 0.316 µM): < 0.0316 µM | IC50 (second compound 1 µM): < 0.0316 µM | IC50 (second compound 3.16 µM): < 0.0316 µM | IC50 (second compound 10 µM): < 0.0316 µM | viability, T/C [1]: 25.9% | viability, T/C [2]: 30% | viability, T/C [13]: 35.5% | viability, T/C [14]: 36.7% | viability, T/C [15]: 28.9% | viability, T/C [16]: 36.5% | viability, T/C [3]: 31% | viability, T/C [4]: 34.8% | viability, T/C [17]: 47% | viability, T/C [18]: 39% | viability, T/C [19]: 38.2% | viability, T/C [20]: 31.2% | viability, T/C [5]: 25.5% | viability, T/C [6]: 35.1% | viability, T/C [21]: 36.9% | viability, T/C [22]: 34.3% | viability, T/C [23]: 40.6% | viability, T/C [24]: 32.1% | viability, T/C [7]: 28.8% | viability, T/C [8]: 37.7% | viability, T/C [25]: 42.1% | viability, T/C [26]: 41.7% | viability, T/C [27]: 31.1% | viability, T/C [28]: 26.9% | viability, T/C [9]: 30.6% | viability, T/C [10]: 32.6% | viability, T/C [29]: 39.9% | viability, T/C [30]: 33.5% | viability, T/C [31]: 35.2% | viability, T/C [32]: 28% | viability, T/C [11]: 29.3% | viability, T/C [12]: 31.3% | viability, T/C [33]: 34.9% | viability, T/C [34]: 35% | viability, T/C [35]: 32.3% | viability, T/C [36]: 32.1%

O=C(c1cc(Cc2n[nH]c(=O)c3ccccc23)ccc1F)N1CCN(C(=O)C2CC2)CC1 + COC1C(OC(N)=O)C(O)C(Oc2ccc3c(O)c(NC(=O)c4ccc(O)c(CC=C(C)C)c4)c(=O)oc3c2C)OC1(C)C
IC50 (second compound 0.0316 µM): > 10 µM | IC50 (second compound 0.1 µM): > 10 µM | IC50 (second compound 0.316 µM): > 10 µM | IC50 (second compound 1 µM): > 10 µM | IC50 (second compound 3.16 µM): > 10 µM | IC50 (second compound 10 µM): > 10 µM | viability, T/C [1]: 106% | viability, T/C [2]: 98% | viability, T/C [13]: 103% | viability, T/C [14]: 99.1% | viability, T/C [15]: 72.5% | viability, T/C [16]: 62.9% | viability, T/C [3]: 91% | viability, T/C [4]: 88.5% | viability, T/C [17]: 88.9% | viability, T/C [18]: 97.4% | viability, T/C [19]: 81.6% | viability, T/C [20]: 63% | viability, T/C [5]: 96.1% | viability, T/C [6]: 87.6% | viability, T/C [21]: 100% | viability, T/C [22]: 92.3% | viability, T/C [23]: 78% | viability, T/C [24]: 70.3% | viability, T/C [7]: 97.4% | viability, T/C [8]: 85.5% | viability, T/C [25]: 109% | viability, T/C [26]: 91.9% | viability, T/C [27]: 96.1% | viability, T/C [28]: 63.5% | viability, T/C [9]: 91.2% | viability, T/C [10]: 87.8% | viability, T/C [29]: 95.8% | viability, T/C [30]: 89% | viability, T/C [31]: 79.1% | viability, T/C [32]: 65.3% | viability, T/C [11]: 94% | viability, T/C [12]: 91.6% | viability, T/C [33]: 94.8% | viability, T/C [34]: 73.3% | viability, T/C [35]: 98.7% | viability, T/C [36]: 74.5%

O=c1[nH]cc(F)c(=O)[nH]1 + COC1C(OC(N)=O)C(O)C(Oc2ccc3c(O)c(NC(=O)c4ccc(O)c(CC=C(C)C)c4)c(=O)oc3c2C)OC1(C)C
IC50 (second compound 0.0316 µM): > 10 µM | IC50 (second compound 0.1 µM): > 10 µM | IC50 (second compound 0.316 µM): > 10 µM | IC50 (second compound 1 µM): > 10 µM | IC50 (second compound 3.16 µM): > 10 µM | IC50 (second compound 10 µM): > 10 µM | viability, T/C [1]: 106% | viability, T/C [2]: 96.4% | viability, T/C [13]: 104% | viability, T/C [14]: 105% | viability, T/C [15]: 76.7% | viability, T/C [16]: 59.8% | viability, T/C [3]: 103% | viability, T/C [4]: 105% | viability, T/C [17]: 99.4% | viability, T/C [18]: 94.6% | viability, T/C [19]: 70.9% | viability, T/C [20]: 60.9% | viability, T/C [5]: 88.2% | viability, T/C [6]: 99.6% | viability, T/C [21]: 92.2% | viability, T/C [22]: 93% | viability, T/C [23]: 84.4% | viability, T/C [24]: 63.5% | viability, T/C [7]: 104% | viability, T/C [8]: 94.2% | viability, T/C [25]: 117% | viability, T/C [26]: 80.2% | viability, T/C [27]: 78% | viability, T/C [28]: 69% | viability, T/C [9]: 112% | viability, T/C [10]: 92.8% | viability, T/C [29]: 95.5% | viability, T/C [30]: 91.7% | viability, T/C [31]: 84.9% | viability, T/C [32]: 65.4% | viability, T/C [11]: 95.2% | viability, T/C [12]: 99.6% | viability, T/C [33]: 99.7% | viability, T/C [34]: 85.3% | viability, T/C [35]: 81.4% | viability, T/C [36]: 78.2%
